Measurements taken from US12036222B2, “Methods of treating cancers overexpressing CARM1 with EZH2 inhibitors and a PARP inhibitor” (The Wistar Institut of Anatomy and Biology, priority 2018, dated 2024).

Assays:
CARM1-depleted cells = test: Sensitization to Olaparib in CARM1-depleted cells; type: cell-based; conditions: data not shown
Excerpt: Therefore, CARM1-expressing EOC can be treated and ultimately eradicated by combinatory targeting EZH2 and PARP using clinically applicable small molecule inhibitors.

DAB2, DLC1, and NOXA = test: qRT-PCR of EZH2/BAF155 target genes in cells; type: cell-based, human; conditions: 10 μM GSK126
Description: FIG. 55 illustrates the relative expression of DAB2, DLC1, and NOXA in parental control and CARM1 knockout A1847 cells that were treated with 10 μM GSK126 or vehicle controls. mRNA expression of the indicated genes was determined by qRT-PCR. *p<0.002 compared with parental controls.
FIG. 56 illustrates the relative expression of DAB2, DLC1, and NOXA in CARM1 high OVCAR10 cells treated with 10 μM GSK126 or vehicle control for 7 days. Expression of the indicated BAF155/EZH2 target genes was determined by qRT-PCR. *p<0.001. Mean of three independent experiments with SEM.
RNA was isolated by RNeasy Mini Kit (Qiagen). mRNA relative expression for DAB2, DLC1, and PMAIP was determined using SYBR green 1-step iScript (Bio-Rad) with a Life Technologies QuantStudio 3. The primers were: 5′-[…]-3′ (DAB2 forward (SEQ ID NO: 2)) and 5′-[…]-3′ (DAB2 reverse (SEQ ID NO: 3)); 5′-[…]-3′ (DLC1 forward (SEQ ID NO: 4)) and 5′-[…]-3′ (DLC1 reverse (SEQ ID NO: 5)); 5′-[…]-3′ (NOXA forward (SEQ ID NO: 6)) and 5′-[…]-3′ (NOXA reverse (SEQ ID NO: 7)); and 5′-[…]-3′ (TIMP3 forward (SEQ ID NO: 8)) and 5′-[…]-3′ (TIMP3 reverse (SEQ ID NO: 9)).

[1] = system: CARM1-expressing cell lines (A1847, OVCAR10, and PEO4); test: Colony formation assay and GSK126 response curves in CARM1-expressing ovarian cancer cell lines; type: cell-based, human
Description: In FIG. 4, CARM1 expression in a panel of high-grade ovarian carcinomas is depicted. FIG. 5 illustrates the results of a colony formation assay with a panel of normal and ovarian cancer cell lines with DMSO and with 10 μM of the EZH2 inhibitor GSK126 (Formula (1)).
In FIG. 7, response curves for GSK126 in a panel of normal and ovarian cancer cell lines are shown.
500 to 5,000 cell were plated into a 24 well tissue culture plate and treated with the indicated compounds. Medium was changed every three days with appropriate drug doses for 12 days or until control wells became confluent. Colonies were washed twice with PBS and fixed with 10% methanol and 10% acetic acid in distilled water. Fixed colonies were stained with 0.005% crystal violet. Integrated density was measured using NIH ImageJ software.

CC[C@H](C)n1cc(C)c2c(C(=O)NCc3c(C)cc(C)[nH]c3=O)cc(-c3ccc(N4CCNCC4)nc3)cc21 [GSK126, (S)-1-(sec-butyl)-N-((4,6-dimethyl-2-oxo-1,2-dihydropyridin-3-yl)methyl)-3-methyl-6-(6-(piperazin-1-yl)pyridin-3-yl)-1H-indole-4-carboxamide]
sensitization to Olaparib (CARM1-depleted cells): did not promote sensitization to Olaparib | expression of identified EZH2/BAF155 target genes (DAB2, DLC1, NOXA) (DAB2, DLC1, and NOXA; A1847, OVCAR10 cells): upregulated | additivity of GSK126 treatment and CARM1 knockout on target gene expression (DAB2, DLC1, and NOXA; CARM1 knockout A1847 cells): did not appear to have additive effects | sensitivity in colony formation assay ([1]; 10 μM GSK126 vs DMSO, panel of normal and ovarian cancer cell lines): particular sensitivity of CARM1-expressing cells | IC50 values from GSK126 response curves ([1]; CARM1-expressing lines A1847, OVCAR10, PEO4 compared with rest of panel of normal and ovarian cancer cell lines, numbers only in FIG. 8): Significantly reduced IC50 values | correlation of cellular response with CARM1 expression levels ([1]; panel of EOC cell lines, 10 μM GSK126): correlation between CARM1 expression levels and cellular response to GSK126
